This passage reports remaining binding results from article PMC10507085, “Pharmacological inhibition of TBK1/IKKε blunts immunopathology in a murine model of SARS-CoV-2 infection” (Nature Communications, 2023).

Targets include BRSK2 (Homo sapiens, UniProt Q8IWQ3); CAMK2B (Homo sapiens, UniProt Q13554); CDC42BPB (Homo sapiens, UniProt Q9Y5S2); CDK4 (Homo sapiens, UniProt P11802); CHEK2 (Homo sapiens, UniProt O96017); CSNK1A1L (Homo sapiens, UniProt Q8N752); EPHB6 (Homo sapiens, UniProt O15197); FGFR4 (Homo sapiens, UniProt P22455); IRAK1 (Homo sapiens, UniProt P51617); LATS1 (Homo sapiens, UniProt O95835); MAPKAPK2 (Homo sapiens, UniProt P49137); MKNK1 (Homo sapiens, UniProt Q9BUB5); MYO3A (Homo sapiens, UniProt Q8NEV4); OXSR1 (Homo sapiens, UniProt O95747); PHKG1 (Homo sapiens, UniProt Q16816); PHKG2 (Homo sapiens, UniProt P15735); RIPK4 (Homo sapiens, UniProt P57078); SRMS (Homo sapiens, UniProt Q9H3Y6); SRPK1 (Homo sapiens, UniProt Q96SB4); YES1 (Homo sapiens, UniProt P07947).

What all share (assay): biochemical
Holding throughout (set-up): KINOMEscan competition binding, DNA-tagged kinase against immobilised ligand, qPCR read-out
What all share (settings): read-out: Percent Control

MYO3A, sequence (Q8NEV4 whole entry): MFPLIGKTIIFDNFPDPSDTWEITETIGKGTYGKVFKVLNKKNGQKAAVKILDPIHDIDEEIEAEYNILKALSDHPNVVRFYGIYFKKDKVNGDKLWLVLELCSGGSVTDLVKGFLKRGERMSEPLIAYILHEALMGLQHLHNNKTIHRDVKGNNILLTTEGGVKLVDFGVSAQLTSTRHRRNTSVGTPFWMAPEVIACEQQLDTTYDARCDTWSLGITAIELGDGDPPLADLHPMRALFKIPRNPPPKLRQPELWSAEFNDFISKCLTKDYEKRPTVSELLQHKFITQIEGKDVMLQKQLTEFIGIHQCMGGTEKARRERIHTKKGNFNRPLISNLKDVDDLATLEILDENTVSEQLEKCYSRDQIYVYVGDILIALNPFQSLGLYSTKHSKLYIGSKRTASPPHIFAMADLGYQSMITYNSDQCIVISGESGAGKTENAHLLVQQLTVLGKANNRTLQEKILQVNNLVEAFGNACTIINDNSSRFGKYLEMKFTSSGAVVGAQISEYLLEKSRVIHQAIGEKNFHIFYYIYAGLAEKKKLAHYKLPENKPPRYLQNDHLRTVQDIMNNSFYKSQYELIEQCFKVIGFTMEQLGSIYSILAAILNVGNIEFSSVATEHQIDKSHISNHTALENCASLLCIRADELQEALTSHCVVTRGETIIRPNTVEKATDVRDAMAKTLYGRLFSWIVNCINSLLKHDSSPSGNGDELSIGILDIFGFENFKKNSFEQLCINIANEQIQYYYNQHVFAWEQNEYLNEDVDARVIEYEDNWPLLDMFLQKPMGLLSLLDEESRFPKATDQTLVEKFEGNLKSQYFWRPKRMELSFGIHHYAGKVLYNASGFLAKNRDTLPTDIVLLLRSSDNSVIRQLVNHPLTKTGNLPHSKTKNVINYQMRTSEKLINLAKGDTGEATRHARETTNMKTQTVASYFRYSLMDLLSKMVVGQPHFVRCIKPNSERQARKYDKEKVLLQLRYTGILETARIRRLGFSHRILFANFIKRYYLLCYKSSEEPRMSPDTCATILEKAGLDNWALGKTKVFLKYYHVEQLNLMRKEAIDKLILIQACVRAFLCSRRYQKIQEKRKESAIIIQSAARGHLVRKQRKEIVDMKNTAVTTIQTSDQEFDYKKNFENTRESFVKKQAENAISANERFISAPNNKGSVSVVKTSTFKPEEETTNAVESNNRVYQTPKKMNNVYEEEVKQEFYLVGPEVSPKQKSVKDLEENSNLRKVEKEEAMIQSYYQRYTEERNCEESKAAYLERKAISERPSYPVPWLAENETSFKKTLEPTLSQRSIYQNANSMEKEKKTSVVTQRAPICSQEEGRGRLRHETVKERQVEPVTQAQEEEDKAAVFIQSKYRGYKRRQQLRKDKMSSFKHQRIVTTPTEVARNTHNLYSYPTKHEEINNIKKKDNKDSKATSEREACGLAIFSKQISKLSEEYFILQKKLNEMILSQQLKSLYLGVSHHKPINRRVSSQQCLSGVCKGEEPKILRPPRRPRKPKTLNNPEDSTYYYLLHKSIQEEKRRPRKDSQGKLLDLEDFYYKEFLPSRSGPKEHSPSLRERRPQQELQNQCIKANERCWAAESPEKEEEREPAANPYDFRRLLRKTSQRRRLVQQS
BRSK2, sequence (Q8IWQ3 whole entry): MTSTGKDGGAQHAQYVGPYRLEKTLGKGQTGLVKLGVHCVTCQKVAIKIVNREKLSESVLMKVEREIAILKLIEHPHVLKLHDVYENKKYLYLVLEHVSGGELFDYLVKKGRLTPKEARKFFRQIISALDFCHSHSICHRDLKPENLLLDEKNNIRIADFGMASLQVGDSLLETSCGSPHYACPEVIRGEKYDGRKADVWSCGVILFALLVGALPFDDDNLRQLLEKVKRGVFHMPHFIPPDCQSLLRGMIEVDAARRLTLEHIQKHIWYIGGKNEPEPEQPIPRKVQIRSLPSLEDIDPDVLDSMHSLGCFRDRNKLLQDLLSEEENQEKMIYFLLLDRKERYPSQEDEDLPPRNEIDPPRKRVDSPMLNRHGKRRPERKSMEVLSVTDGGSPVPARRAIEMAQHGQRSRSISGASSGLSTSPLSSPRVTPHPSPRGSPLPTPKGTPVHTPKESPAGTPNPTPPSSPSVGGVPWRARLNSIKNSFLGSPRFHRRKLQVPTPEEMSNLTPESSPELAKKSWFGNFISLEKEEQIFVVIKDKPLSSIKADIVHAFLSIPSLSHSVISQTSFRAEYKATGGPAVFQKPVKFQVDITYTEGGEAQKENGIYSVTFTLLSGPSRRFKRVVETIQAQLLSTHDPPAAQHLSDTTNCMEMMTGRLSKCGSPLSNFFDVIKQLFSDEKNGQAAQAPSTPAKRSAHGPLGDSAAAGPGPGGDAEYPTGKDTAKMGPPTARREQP
OXSR1, sequence (O95747 whole entry): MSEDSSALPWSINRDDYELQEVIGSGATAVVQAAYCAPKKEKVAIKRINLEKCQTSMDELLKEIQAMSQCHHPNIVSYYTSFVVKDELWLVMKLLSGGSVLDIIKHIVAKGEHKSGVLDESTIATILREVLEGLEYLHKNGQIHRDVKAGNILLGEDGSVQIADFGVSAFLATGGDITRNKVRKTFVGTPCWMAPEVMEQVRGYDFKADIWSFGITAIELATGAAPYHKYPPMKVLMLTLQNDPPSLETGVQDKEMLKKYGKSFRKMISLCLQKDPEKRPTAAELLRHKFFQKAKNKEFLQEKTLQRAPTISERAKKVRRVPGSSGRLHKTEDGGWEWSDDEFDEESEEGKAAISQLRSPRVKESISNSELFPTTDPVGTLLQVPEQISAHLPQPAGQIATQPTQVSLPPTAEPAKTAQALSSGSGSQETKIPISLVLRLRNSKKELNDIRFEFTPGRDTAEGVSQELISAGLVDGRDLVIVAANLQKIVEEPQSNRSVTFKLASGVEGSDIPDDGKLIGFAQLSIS
SRPK1, sequence (Q96SB4 whole entry): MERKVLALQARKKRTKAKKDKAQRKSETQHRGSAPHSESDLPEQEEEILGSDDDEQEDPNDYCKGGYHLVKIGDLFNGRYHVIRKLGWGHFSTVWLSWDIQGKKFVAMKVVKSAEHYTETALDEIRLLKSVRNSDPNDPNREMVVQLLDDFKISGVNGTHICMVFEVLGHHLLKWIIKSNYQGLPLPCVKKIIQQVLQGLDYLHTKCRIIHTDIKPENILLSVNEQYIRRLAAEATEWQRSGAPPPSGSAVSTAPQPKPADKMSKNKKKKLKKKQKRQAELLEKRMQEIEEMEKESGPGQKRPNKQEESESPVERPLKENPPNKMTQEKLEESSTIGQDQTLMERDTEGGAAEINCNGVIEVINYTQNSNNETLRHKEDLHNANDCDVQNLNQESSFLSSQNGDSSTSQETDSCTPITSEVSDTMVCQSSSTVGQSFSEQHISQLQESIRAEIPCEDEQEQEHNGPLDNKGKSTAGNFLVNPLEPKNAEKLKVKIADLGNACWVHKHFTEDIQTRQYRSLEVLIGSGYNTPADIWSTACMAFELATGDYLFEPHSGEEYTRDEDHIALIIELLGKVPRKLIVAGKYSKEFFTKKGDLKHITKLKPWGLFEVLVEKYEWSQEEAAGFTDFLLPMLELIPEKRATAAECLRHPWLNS
CDK4, sequence (P11802 whole entry): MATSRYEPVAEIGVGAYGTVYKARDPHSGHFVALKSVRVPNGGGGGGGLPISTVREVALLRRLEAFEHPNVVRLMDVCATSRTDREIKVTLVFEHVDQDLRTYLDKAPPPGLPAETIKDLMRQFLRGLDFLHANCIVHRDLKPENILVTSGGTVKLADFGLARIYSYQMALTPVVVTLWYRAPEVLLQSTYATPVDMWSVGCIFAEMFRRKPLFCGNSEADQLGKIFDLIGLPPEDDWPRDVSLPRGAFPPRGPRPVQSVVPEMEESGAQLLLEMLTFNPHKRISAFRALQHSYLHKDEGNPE
IRAK1, sequence (P51617 whole entry): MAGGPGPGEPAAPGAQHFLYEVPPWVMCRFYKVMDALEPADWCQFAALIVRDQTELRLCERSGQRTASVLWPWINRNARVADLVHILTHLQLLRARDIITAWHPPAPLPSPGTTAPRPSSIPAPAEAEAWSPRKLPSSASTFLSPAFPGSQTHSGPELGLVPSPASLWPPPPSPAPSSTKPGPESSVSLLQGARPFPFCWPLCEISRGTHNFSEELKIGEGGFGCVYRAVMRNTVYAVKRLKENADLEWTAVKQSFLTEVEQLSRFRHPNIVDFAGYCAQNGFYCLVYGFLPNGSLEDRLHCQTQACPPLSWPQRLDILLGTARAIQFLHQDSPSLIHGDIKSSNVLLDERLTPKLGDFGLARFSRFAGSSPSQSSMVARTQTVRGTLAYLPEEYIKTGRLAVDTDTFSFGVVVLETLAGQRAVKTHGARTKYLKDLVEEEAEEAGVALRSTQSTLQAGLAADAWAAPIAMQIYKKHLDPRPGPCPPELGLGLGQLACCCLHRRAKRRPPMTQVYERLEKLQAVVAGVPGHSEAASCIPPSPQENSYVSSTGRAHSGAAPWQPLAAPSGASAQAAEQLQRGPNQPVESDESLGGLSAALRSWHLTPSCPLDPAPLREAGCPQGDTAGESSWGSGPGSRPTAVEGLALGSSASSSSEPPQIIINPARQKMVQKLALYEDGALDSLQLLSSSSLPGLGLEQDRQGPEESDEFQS
MAPKAPK2, sequence (P49137 whole entry): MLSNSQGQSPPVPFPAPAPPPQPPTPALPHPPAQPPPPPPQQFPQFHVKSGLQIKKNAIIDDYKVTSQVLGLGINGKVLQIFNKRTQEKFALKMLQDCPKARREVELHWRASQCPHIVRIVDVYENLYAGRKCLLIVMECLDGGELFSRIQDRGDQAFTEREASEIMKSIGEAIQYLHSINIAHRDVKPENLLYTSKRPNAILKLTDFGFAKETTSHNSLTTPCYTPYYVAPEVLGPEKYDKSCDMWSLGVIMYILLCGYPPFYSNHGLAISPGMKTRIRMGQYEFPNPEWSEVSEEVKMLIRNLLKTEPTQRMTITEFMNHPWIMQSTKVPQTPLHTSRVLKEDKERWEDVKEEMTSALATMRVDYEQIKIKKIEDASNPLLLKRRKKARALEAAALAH

As to `Oc1ccc(C2=Cc3ccc(O)cc3OC2)cc1` [compound 1, idronoxil], the remaining binding at 10 µM on BRSK2 was found to be 84%; on CAMK2B, 83%; at CDC42BPB, 88%; at CDK4, 100%; at CHEK2, 67%; at CSNK1A1L, 96%. The remaining binding at 10 µM turned out to be 53% at EPHB6; 95% at FGFR4; 80% on IRAK1; 100% at LATS1; 65% on MAPKAPK2; 55% at MKNK1. The remaining binding at 10 µM worked out at 91% at MYO3A; 75% on OXSR1; 57% at PHKG1; 46% at PHKG2; 73% at RIPK4; 68% at SRMS. The figures for the remaining binding at 10 µM at SRPK1 and on YES1 were 100% and 68%, respectively.
